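48-hour exposure; five concentrations; linearly interpolated endpoints. Here, GI50 denotes the concentration required for 50% inhibition of growth.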 Active and inactive are the calls of the source. Rule as the data show it: active = GI50 up to about 1.1 µM and inactive = higher.
Legend:
Assay in all cases: NCI tumour cell line growth inhibition, 48 h
786-0 = tested on: 786-0
A498 = tested on: A498
A549 = tested on: A549
ACHN = tested on: ACHN
CAKI-1 = tested on: CAKI-1
CCRF-CEM = tested on: CCRF-CEM
COLO 205 = tested on: COLO 205
DLD-1 = tested on: DLD-1
DMS-114 = tested on: DMS-114
DMS-273 = tested on: DMS-273
EKVX = tested on: EKVX
HCC 2998 = tested on: HCC 2998
HCT-116 = tested on: HCT-116
HCT-15 = tested on: HCT-15
HL-60 = tested on: HL-60
HOP-18 = tested on: HOP-18
HOP-62 = tested on: HOP-62
HOP-92 = tested on: HOP-92
HT-29 = tested on: HT-29
IGROV-1 = tested on: IGROV-1
K562 = tested on: K562
KM-20L2 = tested on: KM-20L2
KM12 = tested on: KM12
LOX IMVI = tested on: LOX IMVI
LXFL 529 = tested on: LXFL 529
M14 = tested on: M14
M19-MEL = tested on: M19-MEL
MOLT-4 = tested on: MOLT-4
Malme-3M = tested on: Malme-3M
NCI-H226 = tested on: NCI-H226
NCI-H23 = tested on: NCI-H23
NCI-H460 = tested on: NCI-H460
OVCAR-3 = tested on: OVCAR-3
OVCAR-4 = tested on: OVCAR-4
OVCAR-5 = tested on: OVCAR-5
OVCAR-8 = tested on: OVCAR-8
RPMI-8226 = tested on: RPMI-8226
RXF 393 = tested on: RXF 393
SF-268 = tested on: SF-268
SF-295 = tested on: SF-295
SF-539 = tested on: SF-539
SK-MEL-28 = tested on: SK-MEL-28
SK-MEL-2 = tested on: SK-MEL-2
SK-MEL-5 = tested on: SK-MEL-5
SK-OV-3 = tested on: SK-OV-3
SN12C = tested on: SN12C
SNB-19 = tested on: SNB-19
SNB-75 = tested on: SNB-75
SNB-78 = tested on: SNB-78
SR = tested on: SR
SW-620 = tested on: SW-620
TK-10 = tested on: TK-10
U-251 = tested on: U-251
UACC-257 = tested on: UACC-257
UACC-62 = tested on: UACC-62
UO-31 = tested on: UO-31
NCI-H522 = tested on: NCI-H522
XF498 = tested on: XF498

Q: Which GI50 (786-0) does the source give for CN/N=C(\C(=O)Nc1ccc([N+](=O)[O-])cc1[N+](=O)[O-])C1NC(=O)NC1=O (stereo unspecified) here?
A: > 100 µM (inactive)

Q: What about the GI50 (A498) of the same compound?
A: > 100 µM (inactive)

Q: And the GI50 (A549)?
A: > 100 µM (inactive)

Q: And the GI50 (ACHN)?
A: > 100 µM (inactive)

Q: What about the GI50 (CAKI-1) of the same compound?
A: > 100 µM (inactive)

Q: What about the GI50 (CCRF-CEM) of the same compound?
A: > 100 µM (inactive)

Q: What about the GI50 (COLO 205) of the same compound?
A: > 100 µM (inactive)

Q: And the GI50 (DLD-1)?
A: > 100 µM (inactive)

Q: What about the GI50 (DMS-114) of the same compound?
A: > 100 µM (inactive)

Q: What about the GI50 (DMS-273) of the same compound?
A: 32.2 µM (inactive)

Q: And the GI50 (EKVX)?
A: > 100 µM (inactive)

Q: What about the GI50 (HCC 2998) of the same compound?
A: > 100 µM (inactive)

Q: What about the GI50 (HCT-116) of the same compound?
A: > 100 µM (inactive)

Q: And the GI50 (HCT-15)?
A: > 100 µM

Q: What about the GI50 (HL-60) of the same compound?
A: > 100 µM (inactive)

Q: And the GI50 (HOP-18)?
A: > 100 µM (inactive)

Q: What about the GI50 (HOP-62) of the same compound?
A: > 100 µM (inactive)

Q: What about the GI50 (HOP-92) of the same compound?
A: > 100 µM (inactive)

Q: And the GI50 (HT-29)?
A: 80.5 µM (inactive)

Q: And the GI50 (IGROV-1)?
A: > 100 µM (inactive)

Q: What about the GI50 (K562) of the same compound?
A: > 100 µM (inactive)

Q: And the GI50 (KM-20L2)?
A: > 100 µM (inactive)

Q: And the GI50 (KM12)?
A: > 100 µM (inactive)

Q: What about the GI50 (LOX IMVI) of the same compound?
A: 38.1 µM (inactive)

Q: What about the GI50 (LXFL 529) of the same compound?
A: > 100 µM (inactive)

Q: What about the GI50 (M14) of the same compound?
A: > 100 µM (inactive)

Q: And the GI50 (M19-MEL)?
A: > 100 µM (inactive)

Q: And the GI50 (MOLT-4)?
A: > 100 µM (inactive)

Q: And the GI50 (Malme-3M)?
A: > 100 µM (inactive)

Q: And the GI50 (NCI-H226)?
A: > 100 µM (inactive)

Q: And the GI50 (NCI-H23)?
A: > 100 µM (inactive)

Q: What about the GI50 (NCI-H460) of the same compound?
A: > 100 µM (inactive)

Q: What about the GI50 (OVCAR-3) of the same compound?
A: > 100 µM (inactive)

Q: What about the GI50 (OVCAR-4) of the same compound?
A: > 100 µM (inactive)

Q: And the GI50 (OVCAR-5)?
A: > 100 µM (inactive)

Q: What about the GI50 (OVCAR-8) of the same compound?
A: > 100 µM (inactive)

Q: And the GI50 (RPMI-8226)?
A: > 100 µM (inactive)

Q: What about the GI50 (RXF 393) of the same compound?
A: > 100 µM (inactive)

Q: What about the GI50 (SF-268) of the same compound?
A: > 100 µM (inactive)

Q: What about the GI50 (SF-295) of the same compound?
A: > 100 µM (inactive)

Q: What about the GI50 (SF-539) of the same compound?
A: > 100 µM (inactive)

Q: What about the GI50 (SK-MEL-28) of the same compound?
A: > 100 µM (inactive)

Q: What about the GI50 (SK-MEL-2) of the same compound?
A: > 100 µM (inactive)

Q: What about the GI50 (SK-MEL-5) of the same compound?
A: > 100 µM (inactive)

Q: What about the GI50 (SK-OV-3) of the same compound?
A: > 100 µM (inactive)

Q: And the GI50 (SN12C)?
A: > 100 µM (inactive)

Q: And the GI50 (SNB-19)?
A: > 100 µM (inactive)

Q: What about the GI50 (SNB-75) of the same compound?
A: > 100 µM (inactive)

Q: And the GI50 (SNB-78)?
A: > 100 µM (inactive)

Q: What about the GI50 (SR) of the same compound?
A: > 100 µM (inactive)

Q: What about the GI50 (SW-620) of the same compound?
A: 40.3 µM (inactive)

Q: What about the GI50 (TK-10) of the same compound?
A: > 100 µM (inactive)

Q: And the GI50 (U-251)?
A: 27.9 µM (inactive)

Q: And the GI50 (UACC-257)?
A: > 100 µM (inactive)

Q: And the GI50 (UACC-62)?
A: > 100 µM (inactive)

Q: And the GI50 (UO-31)?
A: > 100 µM (inactive)

Q: O=C(CC(C(=O)c1ccsc1)c1cccs1)c1cccs1 (stereo unspecified) was tested. Which GI50 (786-0) did it give?
A: > 100 µM (inactive)

Q: What about the GI50 (A498) of the same compound?
A: 66.4 µM (inactive)

Q: And the GI50 (A549)?
A: 42.6 µM (inactive)

Q: What about the GI50 (ACHN) of the same compound?
A: 99.1 µM (inactive)

Q: And the GI50 (CCRF-CEM)?
A: 43.1 µM (inactive)

Q: And the GI50 (COLO 205)?
A: 94.8 µM (inactive)

Q: And the GI50 (DLD-1)?
A: > 100 µM (inactive)

Q: And the GI50 (DMS-114)?
A: 41.9 µM (inactive)

Q: And the GI50 (DMS-273)?
A: 84.5 µM (inactive)

Q: And the GI50 (EKVX)?
A: 42.5 µM (inactive)

Q: And the GI50 (HCC 2998)?
A: > 100 µM (inactive)

Q: And the GI50 (HCT-116)?
A: 43.4 µM (inactive)

Q: And the GI50 (HCT-15)?
A: 65.5 µM

Q: What about the GI50 (HL-60) of the same compound?
A: 56.8 µM (inactive)

Q: What about the GI50 (HOP-62) of the same compound?
A: > 100 µM (inactive)

Q: What about the GI50 (HOP-92) of the same compound?
A: > 100 µM (inactive)

Q: And the GI50 (HT-29)?
A: 82.2 µM (inactive)

Q: And the GI50 (IGROV-1)?
A: > 100 µM (inactive)

Q: What about the GI50 (K562) of the same compound?
A: 73.5 µM (inactive)

Q: And the GI50 (KM-20L2)?
A: > 100 µM (inactive)

Q: What about the GI50 (LOX IMVI) of the same compound?
A: 68.2 µM (inactive)

Q: And the GI50 (LXFL 529)?
A: 38.5 µM (inactive)

Q: And the GI50 (M14)?
A: 59.3 µM (inactive)

Q: And the GI50 (M19-MEL)?
A: 96.2 µM (inactive)

Q: What about the GI50 (MOLT-4) of the same compound?
A: 33 µM (inactive)

Q: And the GI50 (Malme-3M)?
A: > 100 µM (inactive)

Q: What about the GI50 (NCI-H226) of the same compound?
A: > 100 µM (inactive)

Q: And the GI50 (NCI-H23)?
A: > 100 µM (inactive)

Q: And the GI50 (NCI-H460)?
A: 49 µM (inactive)

Q: And the GI50 (NCI-H522)?
A: 33.4 µM (inactive)

Q: What about the GI50 (OVCAR-3) of the same compound?
A: 38.7 µM (inactive)

Q: And the GI50 (OVCAR-4)?
A: 48.6 µM (inactive)

Q: And the GI50 (OVCAR-5)?
A: > 100 µM (inactive)

Q: And the GI50 (OVCAR-8)?
A: 83.8 µM (inactive)

Q: What about the GI50 (RPMI-8226) of the same compound?
A: 33.1 µM (inactive)

Q: And the GI50 (RXF 393)?
A: > 100 µM (inactive)

Q: What about the GI50 (SF-268) of the same compound?
A: > 100 µM (inactive)

Q: And the GI50 (SF-295)?
A: 37.5 µM (inactive)

Q: And the GI50 (SF-539)?
A: > 100 µM (inactive)

Q: What about the GI50 (SK-MEL-28) of the same compound?
A: > 100 µM (inactive)

Q: What about the GI50 (SK-MEL-2) of the same compound?
A: > 100 µM (inactive)

Q: What about the GI50 (SK-MEL-5) of the same compound?
A: 22.9 µM (inactive)

Q: And the GI50 (SK-OV-3)?
A: > 100 µM (inactive)

Q: And the GI50 (SN12C)?
A: 65.8 µM (inactive)

Q: And the GI50 (SNB-19)?
A: > 100 µM (inactive)

Q: And the GI50 (SNB-75)?
A: 28.1 µM (inactive)

Q: What about the GI50 (SNB-78) of the same compound?
A: > 100 µM (inactive)

Q: What about the GI50 (SR) of the same compound?
A: 29.6 µM (inactive)

Q: What about the GI50 (SW-620) of the same compound?
A: > 100 µM (inactive)

Q: What about the GI50 (TK-10) of the same compound?
A: > 100 µM (inactive)

Q: What about the GI50 (U-251) of the same compound?
A: > 100 µM (inactive)

Q: And the GI50 (UACC-257)?
A: 51.4 µM (inactive)

Q: What about the GI50 (UACC-62) of the same compound?
A: 75.7 µM (inactive)

Q: And the GI50 (UO-31)?
A: 28.1 µM (inactive)

Q: What about the GI50 (XF498) of the same compound?
A: 70.1 µM (inactive)
